Data published in US20250230193A1, “CYCLIC COMPOUND HAVING SELECTIVE KRAS INHIBITORY EFFECT ON HRAS AND NRAS” (CHUGAI SEIYAKU KABUSHIKI KAISHA, priority 2022, published 2025).

Columns and labels:
[1] = target: GDP-bound NRAS wild-type protein (Homo sapiens, UniProt P01111); test: Binding to NRAS by surface plasmon resonance (SPR), Single Cycle Kinetics; conditions: KD ratio, GDP-bound NRAS wild-type vs GDP-bound KRAS wild-type, SPR
[2] = target: GDP-bound HRAS wild-type protein (Homo sapiens, UniProt P01112); test: Binding to HRAS by surface plasmon resonance (SPR), Single Cycle Kinetics; conditions: KD ratio, GDP-bound HRAS wild-type vs GDP-bound KRAS wild-type, SPR
Sequence of GDP-bound HRAS wild-type protein (P01112 whole entry): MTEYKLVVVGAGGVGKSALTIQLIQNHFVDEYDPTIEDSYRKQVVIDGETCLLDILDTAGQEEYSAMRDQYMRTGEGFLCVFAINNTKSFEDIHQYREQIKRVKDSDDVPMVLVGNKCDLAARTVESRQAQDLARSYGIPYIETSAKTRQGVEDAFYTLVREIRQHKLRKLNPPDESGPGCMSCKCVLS

Sequence of GDP-bound NRAS wild-type protein (P01111 whole entry): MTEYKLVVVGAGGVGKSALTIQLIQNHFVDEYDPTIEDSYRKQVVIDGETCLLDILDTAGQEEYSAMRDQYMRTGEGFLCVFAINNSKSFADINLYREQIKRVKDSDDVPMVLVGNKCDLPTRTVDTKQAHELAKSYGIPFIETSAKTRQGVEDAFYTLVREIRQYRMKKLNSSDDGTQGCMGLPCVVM

| Compound | NRAS/KRAS (ratio of KD value with respect to NRAS to KD value with respect to KRAS) [1] | HRAS/KRAS (ratio of KD value with respect to HRAS to KD value with respect to KRAS) [2] |
| --- | --- | --- |
| CCO[C@@H]1C[C@H]2C(=O)NC3(CCC3)C(=O)N(C)[C@@H](C3CCCC3)C(=O)N(C)[C@H](C(=O)N3CCOCC3)CC(=O)N(C)[C@@H](CC)C(=O)N[C@@H]([C@@H](C)CC)C(=O)N(C)CC(=O)N(C)[C@H]3C/C=C\CCN(C3=O)[C@@H](Cc3ccc(C(F)(F)F)cc3)C(=O)N(C)CC(=O)N[C@@H](CCc3cc(F)c(C(F)(F)F)c(F)c3)C(=O)N2C1 [PP1092] | A (a compound having 10 or more and less than 20 is denoted as A) | A (a compound having 10 or more and less than 20 is denoted as A) |
| CCO[C@@H]1C[C@H]2C(=O)NC3(CCC3)C(=O)N(C)[C@@H](C3CCCC3)C(=O)N(C)[C@H](C(=O)N3C4CCC3COC4)CC(=O)N(C)[C@@H](CC)C(=O)N[C@@H]([C@@H](C)CC)C(=O)N(C)CC(=O)N(C)[C@H]3C/C=C\CCN(C3=O)[C@@H](Cc3ccc(C(F)(F)F)cc3)C(=O)N(C)CC(=O)N[C@@H](CCc3cc(F)c(C(F)(F)F)c(F)c3)C(=O)N2C1 [PP1093] | AA (a compound having 20 or more is denoted as AA) | A (a compound having 10 or more and less than 20 is denoted as A) |
| CCO[C@@H]1C[C@H]2C(=O)NC3(CCC3)C(=O)N(C)[C@@H](C3CCCC3)C(=O)N[C@H](C(=O)N(C)C)CC(=O)N(C)[C@@H](CC)C(=O)N[C@@H]([C@@H](C)CC)C(=O)N(C)CC(=O)N(C)[C@H]3C/C=C\CCN(C3=O)[C@@H](Cc3ccc(C(F)(F)F)cc3)C(=O)N(C)CC(=O)N[C@@H](CCc3cc(F)c(C(F)(F)F)c(F)c3)C(=O)N2C1 [PP1094] | A (a compound having 10 or more and less than 20 is denoted as A) | B (a compound having 3 or more and less than 10 is denoted as B) |
| CCO[C@@H]1C[C@H]2C(=O)NC3(CCC3)C(=O)N(C)[C@@H](C3CCCC3)C(=O)N(C)[C@H](C)CC(=O)N(C)[C@@H](CC)C(=O)N[C@@H]([C@@H](C)CC)C(=O)N(C)CC(=O)N(C)[C@H]3C/C=C\CCN(C3=O)[C@@H](Cc3ccc(C(F)(F)F)cc3)C(=O)N(C)CC(=O)N[C@@H](CCc3cc(F)c(C(F)(F)F)c(F)c3)C(=O)N2C1 [PP1095] | B (a compound having 3 or more and less than 10 is denoted as B) | B (a compound having 3 or more and less than 10 is denoted as B) |
| CCO[C@@H]1C[C@H]2C(=O)NC3(CCCC3)C(=O)N(C)[C@@H](C3CCCC3)C(=O)N(C)[C@H](C)CC(=O)N(C)[C@@H](CC(C)C)C(=O)N[C@@H]([C@@H](C)CC)C(=O)N(C)CC(=O)N(C)[C@H]3C/C=C\CCN(C3=O)[C@@H](Cc3ccc(C(F)(F)F)cc3)C(=O)N(C)CC(=O)N[C@@H](CCc3cc(F)c(C(F)(F)F)c(F)c3)C(=O)N2C1 [PP1096] | B (a compound having 3 or more and less than 10 is denoted as B) | B (a compound having 3 or more and less than 10 is denoted as B) |
| CCO[C@@H]1C[C@H]2C(=O)NC3(CCC3)C(=O)N(C)[C@@H](C3CCCC3)C(=O)N3CCC[C@@H]3CC(=O)N(C)[C@@H](CC)C(=O)N[C@@H]([C@@H](C)CC)C(=O)N(C)CC(=O)N(C)[C@H]3C/C=C\CCN(C3=O)[C@@H](Cc3ccc(C(F)(F)F)cc3)C(=O)N(C)CC(=O)N[C@@H](CCc3cc(F)c(C(F)(F)F)c(F)c3)C(=O)N2C1 [PP1097] | B (a compound having 3 or more and less than 10 is denoted as B) | B (a compound having 3 or more and less than 10 is denoted as B) |
| CCO[C@@H]1C[C@H]2C(=O)NC3(CCC3)C(=O)N(C)[C@@H](C3CCCC3)C(=O)N[C@H](C)CC(=O)N(C)[C@@H](CC)C(=O)N[C@@H]([C@@H](C)CC)C(=O)N(C)CC(=O)N(C)[C@H]3C/C=C\CCN(C3=O)[C@@H](Cc3ccc(C(F)(F)F)cc3)C(=O)N(C)CC(=O)N[C@@H](CCc3cc(F)c(C(F)(F)F)c(F)c3)C(=O)N2C1 [PP1098] | B (a compound having 3 or more and less than 10 is denoted as B) | B (a compound having 3 or more and less than 10 is denoted as B) |
| CCO[C@@H]1C[C@H]2C(=O)NC3(CCC3)C(=O)N(C)[C@@H](C3CCCC3)C(=O)N(C)[C@H](C)CC(=O)N(C)[C@@H](CC(C)C)C(=O)N[C@@H]([C@@H](C)CC)C(=O)N(C)CC(=O)N(C)[C@H]3C/C=C\CCN(C3=O)[C@@H](Cc3ccc(C(F)(F)F)cc3)C(=O)N(C)CC(=O)N[C@@H](CCc3cc(F)c(C(F)(F)F)c(F)c3)C(=O)N2C1 [PP1100] | B (a compound having 3 or more and less than 10 is denoted as B) | B (a compound having 3 or more and less than 10 is denoted as B) |
| CC[C@H](C)[C@@H]1NC(=O)[C@H](CC)N(C)C(=O)C[C@@H](C)N(C)C(=O)[C@H](C2CCCC2)N(C)C(=O)C2(CCCC2)NC(=O)[C@@H]2CCCN2C(=O)[C@H](CCc2cc(F)c(C(F)(F)F)c(F)c2)NC(=O)CN(C)C(=O)[C@H](Cc2ccc(C(F)(F)F)cc2)N2CC/C=C\C[C@@H](C2=O)N(C)C(=O)CN(C)C1=O [PP1101] | B (a compound having 3 or more and less than 10 is denoted as B) | B (a compound having 3 or more and less than 10 is denoted as B) |
| CC[C@H](C)[C@@H]1NC(=O)[C@H](CC(C)C)N(C)C(=O)C[C@@H](C)N(C)C(=O)[C@H](C2CCCC2)N(C)C(=O)C2(CCCC2)NC(=O)[C@@H]2CCCN2C(=O)[C@H](CCc2cc(F)c(C(F)(F)F)c(F)c2)NC(=O)CN(C)C(=O)[C@H](Cc2ccc(C(F)(F)F)cc2)N2CC/C=C\C[C@@H](C2=O)N(C)C(=O)CN(C)C1=O [PP1102] | B (a compound having 3 or more and less than 10 is denoted as B) | A (a compound having 10 or more and less than 20 is denoted as A) |
| CC[C@H](C)[C@@H]1NC(=O)[C@H](C)N(C)C(=O)C[C@@H](C(=O)N(C)C)N(C)C(=O)[C@H](C2CCCC2)N(C)C(=O)C2(CCC2)NC(=O)[C@@H]2CC(F)(F)CN2C(=O)[C@H](CCc2cc(F)c(C(F)(F)F)c(F)c2)NC(=O)CN(C)C(=O)[C@H](Cc2ccc(C(F)(F)F)cc2)N2CC/C=C\C[C@@H](C2=O)N(C)C(=O)CN(C)C1=O [PP1103] | A (a compound having 10 or more and less than 20 is denoted as A) | B (a compound having 3 or more and less than 10 is denoted as B) |
| CCO[C@@H]1C[C@H]2C(=O)NC3(CCCC3)C(=O)N(C)[C@@H](C3CCCC3)C(=O)N(C)[C@H](C(=O)N(C)C)CC(=O)N(C)[C@@H](C)C(=O)N[C@@H]([C@@H](C)CC)C(=O)N(C)CC(=O)N(C)[C@H]3C/C=C\CCN(C3=O)[C@@H](Cc3ccc(C(F)(F)F)cc3)C(=O)N(C)CC(=O)N[C@@H](CCc3cc(F)c(C(F)(F)F)c(F)c3)C(=O)N2C1 [PP1104] | A (a compound having 10 or more and less than 20 is denoted as A) | A (a compound having 10 or more and less than 20 is denoted as A) |
| CCO[C@@H]1C[C@H]2C(=O)NC3(CCCC3)C(=O)N(C)[C@@H](C3CCCC3)C(=O)N(C)[C@H](C(=O)N(C)C)CC(=O)N(C)[C@@H](CC(C)C)C(=O)N[C@@H]([C@@H](C)CC)C(=O)N(C)CC(=O)N(C)[C@H]3C/C=C\CCN(C3=O)[C@@H](Cc3ccc(C(F)(F)F)cc3)C(=O)N(C)CC(=O)N[C@@H](CCc3cc(F)c(C(F)(F)F)c(F)c3)C(=O)N2C1 [PP1105] | A (a compound having 10 or more and less than 20 is denoted as A) | A (a compound having 10 or more and less than 20 is denoted as A) |
| CC[C@H](C)[C@@H]1NC(=O)[C@H](CC)N(C)C(=O)C[C@@H](C(=O)N(C)C)N(CC)C(=O)[C@H](C2CCCC2)N(C)C(=O)C2(CCC2)NC(=O)[C@@H]2CCCN2C(=O)[C@H](CCc2cc(F)c(C(F)(F)F)c(F)c2)NC(=O)CN(C)C(=O)[C@H](Cc2ccc(C(F)(F)F)cc2)N2CC/C=C\C[C@@H](C2=O)N(C)C(=O)CN(C)C1=O [PP1106] | A (a compound having 10 or more and less than 20 is denoted as A) | A (a compound having 10 or more and less than 20 is denoted as A) |
| CCO[C@@H]1C[C@H]2C(=O)NC3(CCC3)C(=O)N(C)[C@@H](C3CCCC3)C(=O)N(C)[C@H](C(=O)N(C)C)CC(=O)N(C)[C@@H](CC(C)C)C(=O)N[C@@H]([C@@H](C)CC)C(=O)N(C)CC(=O)N(C)[C@H]3C/C=C\CCN(C3=O)[C@@H](Cc3ccc(C(F)(F)F)cc3)C(=O)N(C)CC(=O)N[C@@H](CCc3cc(F)c(C(F)(F)F)c(F)c3)C(=O)N2C1 [PP1107] | A (a compound having 10 or more and less than 20 is denoted as A) | A (a compound having 10 or more and less than 20 is denoted as A) |
| CCO[C@@H]1C[C@H]2C(=O)NC3(CCC3)C(=O)N(C)[C@@H](C3CCCC3)C(=O)N(C)[C@H](C(=O)N(C)C)CC(=O)N(C)[C@@H](C)C(=O)N[C@@H]([C@@H](C)CC)C(=O)N(C)CC(=O)N(C)[C@H]3C/C=C\CCN(C3=O)[C@@H](Cc3ccc(C(F)(F)F)cc3)C(=O)N(C)CC(=O)N[C@@H](CCc3cc(F)c(C(F)(F)F)c(F)c3)C(=O)N2C1 [PP1108] | A (a compound having 10 or more and less than 20 is denoted as A) | A (a compound having 10 or more and less than 20 is denoted as A) |
